# Values joined by “and” are separate entries in the source; they are usually repeats but may differ in a detail not shown here. Equal entries are not always repeated. “Also recorded” adds a separate entry of the source. Where two headings read alike, the source gives them in different places. Marks after values point to notes of the source that are not given here.
# Assays:
# [1] = Pharmacokinetics after intravenous administration in rats (LC-MS)
# [2] = in vivo
# [3] = tested on: PAMPs-induced TNF release (LPS, PGN, AGE, Poly I:C); test: PAMPs-induced TNF release in human macrophages; assay type: cell-based; settings: LPS 4 ng/ml, poly I:C 50 μg/ml, PGN 5 μg/ml, S100A12 50 μg/ml; 16 hours
# [4] = tested on: HMGB1-induced TNF release; test: HMGB1-induced TNF release in human primary macrophages (ELISA); assay type: cell-based; settings: FIG. 17A
# Procedure: For all of these studies, TNF released was measured using an ELISA.
# in vivo = settings: male, Sprague-Dawley, rat; for AUC(0-inf): iv, 1 mg/kg
# [5] = tested on: APAP-induced liver injury; test: APAP-induced liver injury model; assay type: in vivo, male C57BL/6 mice
# Solubility of K883 = assay type: physicochemical
# Excerpt: This provides the basis for developing intravenous (IV) formulation that will serve as a benchmark for developing oral (PO) formulations.
# [6] = tested on: DAMPs-induced TNF secretion (CIRP, SAA, PEDF, HSP 70, HSP90, H2A); test: DAMPs-induced TNF secretion in human macrophages; assay type: cell-based; settings: 16 hours
# [7] = tested on: CCI-induced neuropathic pain; test: Chronic constriction injury of the sciatic nerve (CCI) neuropathic pain; set-up: species or system male Wistar rats; settings: rat, in vivo
# [8] = tested on: cecal ligation and puncture-sepsis; test: Cecal ligation and puncture (CLP) sepsis; assay type: in vivo; settings: male C57BL/6 mice; 500 μg/mouse IP once a day for 3 days starting 24 hours post CLP; n=15
# [9] = tested on: CCI-induced neuropathic pain; test: Chronic constriction injury of the sciatic nerve (CCI) neuropathic pain; assay type: in vivo, male Wistar rats; settings: for Paw Withdrawal Latency: CCI
# Procedure: The CCI rats each received surgery. […] Mechanical and thermal sensitivity tests were also performed over time. Hargreaves Thermal Hypersensitivity test was administered to the rats as well as Von Frey mechanical hypersensitivity test.
# Rats (male Wistar, 150-180 gm, n=6/group) had CCI surgery. […] Two weeks after surgery, thermal (Hargreaves) or mechanical (von Frey) hypersensitivity was assessed. *: P<0.05 vs. PBS group. […]
# F11 cells = test: Disulfide HMGB1-induced calcium influx in F11 cells; assay type: cell-based; settings: relative fluorescent intensity; most inhibition at 50 μg/ml
# Excerpt: These studies all measured relative fluorescent intensity with FIG. 30C which included the largest amount of […]
# STZ-induced diabetes = test: STZ-induced diabetes; assay type: in vivo, mice; settings: 500 μg/mouse repetitive administration; vs PBS
# Procedure: Mice were administered repetitive administration of […] (500 μg/mouse). […] Repetitive administration of […] was therefore shown to be beneficial in STZ-induced diabetes. […] (*: P<0.05 vs. PBS group. N=6-8 mice per group).
# Single-dose tolerability = assay type: in vivo; settings: single-dose studies
# [10] = tested on: APAP-induced liver injury; settings: comparative data, cited from earlier work
# [11] = tested on: cecal ligation and puncture-sepsis; settings: male C57BL/6 mice; 50 or 500 μg/mouse IP once a day for 4 days starting 24 hours post CLP; n=20; comparative data; cited from earlier work
# [12] = tested on: liver ischemia and reperfusion injury; settings: 500 μg/mouse IP at time of I/R surgery; 6 hours; vs vehicle; cited from earlier work
smiles,measurement,setting,value
NC(=O)N(CCC(=O)O)NC(=O)[C@H](CO)NC(=O)[C@H](CO)NC(=O)N(N)Cc1ccccc1 [K883],"AUClast, individual rats","[1]; IV 1 mg/kg, 1 mg/kg",3772 ng·h/mL and 3807 ng·h/mL and 3749 ng·h/mL
same,"MRTlast, individual rats","[1]; IV 1 mg/kg, 1 mg/kg",32.1 min and 31.7 min and 36.4 min
same,"Vss, individual rats","[1]; IV 1 mg/kg, 1 mg/kg",0.163 L/kg
same,"t1/2, individual rats","[1]; IV 1 mg/kg, 1 mg/kg",78 min
same,"Plasma concentration, individual rats","[1]; IV 1 mg/kg, 0.50 hr, 1 mg/kg",2500 ng/mL and 3220 ng/mL
same,"Plasma concentration, individual rats","[1]; IV 1 mg/kg, 1.0 hr, 1 mg/kg",1160 ng/mL and 1300 ng/mL
same,"Plasma concentration, individual rats","[1]; IV 1 mg/kg, 2.0 hr, 1 mg/kg",130 ng/mL and 142 ng/mL
same,"Plasma concentration, individual rats","[1]; IV 1 mg/kg, 4.0 hr, 1 mg/kg",15.1 ng/mL and 17.7 ng/mL
same,"Plasma concentration, individual rats","[1]; IV 1 mg/kg, 6.0 hr, 1 mg/kg",4.04 ng/mL and 4.77 ng/mL
same,"Plasma concentration, individual rats","[1]; IV 1 mg/kg, 8.0 hr",2.01 ng/mL
same,"Plasma concentration, individual rats","[1]; IV 1 mg/kg, 8.0 hr, 1 mg/kg",0.871 ng/mL and 1.68 ng/mL
same,"AUClast, Mean","[1]; IV 1 mg/kg, mean of 3 rats",3776 ng·h/mL
same,"MRTlast, Mean","[1]; IV 1 mg/kg, mean of 3 rats",33.4 min
same,half-life,"[1]; male, Sprague-Dawley, rat, in vivo, 1 mg/kg, in vivo half-life (T½)",> 60 min
same,AUC(0-inf),"[1]; male, Sprague-Dawley, rat, in vivo, iv, 1 mg/kg",3780 ng·h/mL
same,concentration at 0.5 hr,"[1]; male, Sprague-Dawley, rat, in vivo, iv, 1 mg/kg, Plasma concentration, Mean, IV 1 mg/kg, 0.50 hr, mean of 3 rats",2910 ng/mL
same,concentration at 1 hr,"[1]; male, Sprague-Dawley, rat, in vivo, iv, 1 mg/kg, Plasma concentration, Mean, IV 1 mg/kg, 1.0 hr, mean of 3 rats",1090 ng/mL
same,concentration at 2 hr,"[1]; male, Sprague-Dawley, rat, in vivo, iv, 1 mg/kg, Plasma concentration, Mean, IV 1 mg/kg, 2.0 hr, mean of 3 rats",135 ng/mL
same,concentration at 4 hr,"[1]; male, Sprague-Dawley, rat, in vivo, iv, 1 mg/kg, Plasma concentration, Mean, IV 1 mg/kg, 4.0 hr, mean of 3 rats",16.6 ng/mL
same,concentration at 6 hr,"[1]; male, Sprague-Dawley, rat, in vivo, iv, 1 mg/kg, Plasma concentration, Mean, IV 1 mg/kg, 6.0 hr, mean of 3 rats",5.1 ng/mL
same,concentration at 8 hr,"[1]; male, Sprague-Dawley, rat, in vivo, iv, 1 mg/kg, Plasma concentration, Mean, IV 1 mg/kg, 8.0 hr, mean of 3 rats",1.52 ng/mL
same,concentration at 0.5 hr,"[1]; male, Sprague-Dawley, rat, in vivo, iv, 1 mg/kg, Plasma concentration, individual rats, IV 1 mg/kg, 0.50 hr",3020 ng/mL
same,concentration at 1 hr,"[1]; male, Sprague-Dawley, rat, in vivo, iv, 1 mg/kg, Plasma concentration, individual rats, IV 1 mg/kg, 1.0 hr",814 ng/mL
same,concentration at 2 hr,"[1]; male, Sprague-Dawley, rat, in vivo, iv, 1 mg/kg, Plasma concentration, individual rats, IV 1 mg/kg, 2.0 hr",133 ng/mL
same,concentration at 4 hr,"[1]; male, Sprague-Dawley, rat, in vivo, iv, 1 mg/kg, Plasma concentration, individual rats, IV 1 mg/kg, 4.0 hr",17 ng/mL
same,concentration at 6 hr,"[1]; male, Sprague-Dawley, rat, in vivo, iv, 1 mg/kg, Plasma concentration, individual rats, IV 1 mg/kg, 6.0 hr",6.49 ng/mL
same,oral bioavailability,[2],low oral bioavailability
same,PAMPs-induced TNF release,[3],failed to inhibit other PAMPS; also recorded: does not inhibit other PAMPs
same,HMGB1-induced TNF secretion,[4],inhibition
same,AUC(0-inf),in vivo; Mean,3780 ng·h/mL
same,AUC(0-inf),in vivo; individual rats,3810 ng·h/mL
same,half-life,in vivo; serum half-life,> 60 min
same,serum ALT,"[5]; 50 ugs/mouse, vs vehicle controls",reduced serum ALT
same,liver necrosis (H&E histology),"[5]; APAP 350 mg/kg IP, K883 50 μg/mouse IP at 2 and 7 hours post-APAP, 24 hours, vs vehicle",reduced liver necrosis
same,mice surviving the toxicity of APAP (2 weeks),"[5]; APAP 400 mg/kg, 50 μg/mouse IP once-a-day for 5 days starting 2 hours post-APAP, 8 in the control group",14 mice out of 15
same,solubility,"Solubility of K883; aqueous with cosolvent or surfactant or cyclodextrin, PBS:PEG 300:propylene glycol:polysorbate 80 at 50:40:5:5, preliminary evidence, read-out: solubility in excipient mixture",> 5000 µg/mL
same,solubility,"Solubility of K883; water, read-out: solubility in water",< 100 µg/mL
same,TNF secretion induced by other DAMPs,[6],not inhibited
same,"CCI-induced CXCL1, TNF and IL-1β expression (spine)",[7],"reduce CCI-induced CSCL1, TNF and IL-1β expression"
same,CCI-induced CXCL1 and TNF expression (DRGs),[7],reduce CCI-induced CSCL1 and TNF expression
same,sepsis lethality (survival 2 weeks),[8],protects against sepsis lethality
same,CCI-induced thermal and mechanical hypersensitivity,"[9]; 800 μg/rat IP once a day for 3 days, Hargreaves, von Frey",ameliorated both mechanical and thermal hypersensitivity; also recorded: improved CCI-induced thermal and mechanical hypersensitivity
same,tolerance to repeated treatment,[9]; 800 μg/rat IP once daily for three days,did not develop tolerance
same,paw withdrawal,"[9]; CCI rat model, vehicle 3.73+/−0.58 (SD)",5.45 ± 0.98 s
same,Paw Withdrawal Latency,[9]; 0 hours post treatment,4.1 ± 1.0 s
same,Paw Withdrawal Latency,[9]; 2 hours post treatment,4.3 ± 1.2 s
same,Paw Withdrawal Latency,[9]; 6 hours post treatment,6.0 ± 0.6* sec
same,Paw Withdrawal Latency,[9]; 24 hours post treatment,5.0 ± 0.5 s
same,disulfide HMGB1-induced calcium influx,F11 cells,inhibit disulfide hmgb1-induced calcium influx
same,hyperglycemia,STZ-induced diabetes,delays hyperglycemia
same,insulitis,STZ-induced diabetes,reduces insulitis
same,weight gain,STZ-induced diabetes,improves weight gain
same,tolerability,Single-dose tolerability,well-tolerated
NC(=O)[C@H](CCC(=O)O)NC(=O)[C@H](CO)NC(=O)[C@H](CO)NC(=O)[C@@H](N)Cc1ccccc1 [P5779],serum ALT,[10]; 500 ugs/mouse,significant reductions in ALT
same,liver necrosis (H&E histology),"[10]; APAP 350 mg/kg IP, P5779 50 or 500 μg/mouse IP at 2 and 7 hours, vs scrambled control peptide",reduced liver necrosis
same,Percent survival (2 weeks) post-APAP,"[10]; APAP 400 mg/kg, 500 μg/mouse IP once a day for 5 days, n=30",significantly improved
same,sepsis lethality (survival 2 weeks),[11],protects against sepsis lethality
same,Serum levels of ALT and AST,[12],reduced

# Source: patent US11471507B2, “HMGB1 antagonist” (THE FEINSTEIN INSTITUTES FOR MEDICAL RESEARCH, priority 2019, dated 2022)
